Test results: ChEMBL document CHEMBL5634121, “Discovery of novel G9a/GLP covalent inhibitors for the treatment of triple-negative breast cancer” (Eur J Med Chem, 2023)
The source made the active and inactive calls. The rule behind the calls is not given here.

Legend:
MDA-MB-231 [1] = experiment: Antiproliferative activity against human MDA-MB-231 cells at 1 to 5 nM by MTT assay; assay type: functional, cell-based; conditions: dose 1-5 nM, time 3-5 day, TDE = time-dependent effect
MDA-MB-231 [2] = experiment: Induction of apoptosis in human MDA-MB-231 cells assessed as late apoptotic cells at 5 uM incubated for 72 hrs by Annexin V and PI staining based flow cytometry analysis (reference value: 0.45 %); assay type: functional
MDA-MB-231 [3] = experiment: Antiproliferative activity against human MDA-MB-231 cells incubated for 3 to 5 days by MTT assay; assay type: functional, cell-based; conditions: time 3-5 day
MDA-MB-231 [4] = experiment: Inhibition of colony formation in human MDA-MB-231 cells at 1 to 10 uM refreshed every 4 days for 12 days by crystal violet staining based assay; assay type: functional, cell-based; conditions: dose 1-10 µM, time 12.0 day
MDA-MB-231 [5] = experiment: Induction of apoptosis in human MDA-MB-231 cells assessed as early apoptotic cells at 10 uM incubated for 72 hrs by Annexin V and PI staining based flow cytometry analysis (reference value: 0.92 %); assay type: functional
MDA-MB-231 [6] = experiment: Induction of apoptosis in human MDA-MB-231 cells assessed as necrotic cells at 5 uM incubated for 72 hrs by Annexin V and PI staining based flow cytometry analysis (reference value: 0.32 %); assay type: functional
[7] = Mean residence time in ICR mouse at 2 mg/kg, iv measured upto 12 hrs by LC-MS/MS analysis; assay type: ADME, organism-based; conditions: in vivo
[8] = target: T1, Histone-lysine N-methyltransferase EHMT1 (Homo sapiens, UniProt Q9H9B1); experiment: Inhibition of GLP (unknown origin)
T1 sequence (Q9H9B1 whole entry): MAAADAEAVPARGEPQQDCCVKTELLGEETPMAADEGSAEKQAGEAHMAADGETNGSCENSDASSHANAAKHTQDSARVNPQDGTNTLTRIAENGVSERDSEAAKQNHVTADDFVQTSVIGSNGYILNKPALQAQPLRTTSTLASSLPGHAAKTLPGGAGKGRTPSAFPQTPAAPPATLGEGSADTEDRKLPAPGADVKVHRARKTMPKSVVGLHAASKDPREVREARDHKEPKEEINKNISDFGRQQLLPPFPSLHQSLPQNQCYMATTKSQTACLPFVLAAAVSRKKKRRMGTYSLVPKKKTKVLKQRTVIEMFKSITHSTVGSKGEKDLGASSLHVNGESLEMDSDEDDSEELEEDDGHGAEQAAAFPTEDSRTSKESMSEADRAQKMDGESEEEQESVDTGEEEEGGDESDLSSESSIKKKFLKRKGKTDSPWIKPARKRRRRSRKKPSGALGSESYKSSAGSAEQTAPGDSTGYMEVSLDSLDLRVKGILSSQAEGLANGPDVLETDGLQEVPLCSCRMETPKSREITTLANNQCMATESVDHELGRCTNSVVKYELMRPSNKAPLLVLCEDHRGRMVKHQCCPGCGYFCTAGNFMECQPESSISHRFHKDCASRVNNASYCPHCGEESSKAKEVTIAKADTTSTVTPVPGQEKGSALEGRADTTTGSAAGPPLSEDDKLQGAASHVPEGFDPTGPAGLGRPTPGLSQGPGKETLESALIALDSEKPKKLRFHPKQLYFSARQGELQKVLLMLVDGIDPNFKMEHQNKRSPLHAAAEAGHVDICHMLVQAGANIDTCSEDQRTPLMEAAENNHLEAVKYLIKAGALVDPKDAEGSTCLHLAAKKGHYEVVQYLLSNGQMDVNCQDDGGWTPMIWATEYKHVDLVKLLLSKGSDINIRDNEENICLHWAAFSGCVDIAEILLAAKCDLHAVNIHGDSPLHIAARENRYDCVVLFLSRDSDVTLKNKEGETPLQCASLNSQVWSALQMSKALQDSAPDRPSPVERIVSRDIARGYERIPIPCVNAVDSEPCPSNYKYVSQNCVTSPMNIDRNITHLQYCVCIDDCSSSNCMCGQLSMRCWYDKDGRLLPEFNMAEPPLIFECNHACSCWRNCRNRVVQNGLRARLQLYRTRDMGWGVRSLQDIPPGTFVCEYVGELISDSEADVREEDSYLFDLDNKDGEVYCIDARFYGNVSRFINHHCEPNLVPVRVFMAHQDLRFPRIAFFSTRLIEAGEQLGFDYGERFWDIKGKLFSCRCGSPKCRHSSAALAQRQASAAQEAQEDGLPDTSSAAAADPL

Question: Which Activity (MDA-MB-231 [1]) does the source give for `C=CC(=O)Nc1cccc(-c2nc(NC3CCN(C)CC3)c3cc(OC)c(OC)cc3n2)c1` here?
Answer: Its Activity is “Tde”.

Question: What about the Activity (MDA-MB-231 [2]) of the same molecule?
Answer: The Activity was 3.01%.

Question: And the Activity (MDA-MB-231 [3])?
Answer: Its Activity is “Dose-Dependent Effect”.

Question: What about the inhibition (MDA-MB-231 [4]) of the same molecule?
Answer: The inhibition was “Active”.

Question: And the Activity (MDA-MB-231 [5])?
Answer: Its Activity is 3.7%.

Question: And the Activity (MDA-MB-231 [6])?
Answer: Its Activity is 0.93%.

Question: And the MRT [7]?
Answer: Its MRT is 2.3 h.

Question: And the IC50 [8]?
Answer: Its IC50 is 458 nM.
